Results as given in patent US20260240810A1, “COMPOSITIONS AND METHODS FOR REDUCING ADVERSE SIDE EFFECTS IN CANCER TREATMENT” (priority 2022, published 2026).

Experiment: PREVLAR trial: adverse events
Type: in vivo, human
From the text: Of potential significance for OM, decreased rates of several pathognomonic toxicities were seen (see Table 4).
• CTCAEv.4 are a set of criteria for the standardized classification of AEs of drugs used in cancer therapy.

[1] = Arm 1: RRx-001 Pre-treatment + SOC Chemoradiation (N = 12)
[2] = Arm 1: RRx-001 pretreatment + SOC chemoradiation
[3] = Arm 2: RRx-001 Pre-treatment + 2 Concurrent Doses + SOC Chemoradiation (N = 11)
[4] = Arm 2: RRx-001 pretreatment + 2 concurrent doses + SOC chemoradiation
[5] = Arm 3: RRx-001 Pre-treatment + 6 Concurrent Doses + SOC Chemoradiation (N = 13)
[6] = Arm 3: RRx-001 pretreatment + 6 concurrent doses + SOC chemoradiation

O=C(CBr)N1CC([N+](=O)[O-])([N+](=O)[O-])C1 [RRx-001, 2-bromo-1-(3,3-dinitroazetidin-1-yl) ethan-1-one] showed a Related anemia (Arm 1) of 0%, a neutrophil count decrease (Arm 1) of 0% and a related oral dysesthesia (Arm 1) of 0%. The related vomiting (Arm 1) was 1%, the radiation-induced skin injury (Arm 1, p=0.0007 vs control) was “none” and the Oral pain (Arm 1, p=0.0095 vs control) was 0%. The related constipation (Arm 1, p=0.0095 vs control) was 0%, the “reported adverse events (CTCAEv.4): Anemia” value [1] was 0 (0) and the “reported adverse events (CTCAEv.4): Blood creatinine increased” value [1] was 0 (0). The “reported adverse events (CTCAEv.4): Blood urea increased” value [1] was 0 (0), the “reported adverse events (CTCAEv.4): Candida infection” value [1] was 0 (0) and the “reported adverse events (CTCAEv.4): Constipation” value [1] was 0 (0). The “reported adverse events (CTCAEv.4): Decreased appetite” value [1] was 0 (0), the “reported adverse events (CTCAEv.4): Dermatitis” value [1] was 0 (0) and the “reported adverse events (CTCAEv.4): Dry mouth” value [1] was 0 (0). For the same compound, the “reported adverse events (CTCAEv.4): Dysgeusia” value [1] was 0 (0), the “reported adverse events (CTCAEv.4): Dysphagia” value [1] was 0 (0) and the “reported adverse events (CTCAEv.4): Glossodynia” value [1] was 0 (0). For the same compound, the “reported adverse events (CTCAEv.4): Laryngeal inflammation” value [1] was 0 (0), the “reported adverse events (CTCAEv.4): Neutrophil count decreased” value [1] was 0 (0) and the “reported adverse events (CTCAEv.4): Oral candidiasis” value [1] was 1 (8.3). The “reported adverse events (CTCAEv.4): Oral dysaesthesia” value [1] was 0 (0), the “reported adverse events (CTCAEv.4): Oral dysesthesia” value [1] was 0 (0) and the “reported adverse events (CTCAEv.4): Oral pain” value [1] was 0 (0). For the same compound, the “reported adverse events (CTCAEv.4): Platelet count decreased” value [1] was 0 (0), the “reported adverse events (CTCAEv.4): Radiation skin injury” value [1] was 0 (0) and the “reported adverse events (CTCAEv.4): Salivary duct inflammation” value [1] was 0 (0). The “reported adverse events (CTCAEv.4): Vomiting” value [1] was 1 (8.3), the “reported adverse events (CTCAEv.4): Weight decreased” value [1] was 0 (0) and the “reported adverse events (CTCAEv.4): White blood cell count decreased” value [1] was 0 (0). The “SAE frequency: Anemia” value [2] was 8.3%, the “SAE frequency: Atrial flutter” value [2] was 8.3% and the “SAE frequency: Decreased appetite” value [2] was 8.3%. For the same compound, the “SAE frequency: Dysgeusia” value [2] was 8.3%, the “SAE frequency: Febrile neutropenia” value [2] was 8.3% and the “SAE frequency: Hypertension” value [2] was 8.3%. The “SAE frequency: Hypoacusis” value [2] was 8.3%, the “SAE frequency: Hypokalemia” value [2] was 8.3% and the “SAE frequency: Lymphocyte count decreased” value [2] was 33.3%. The “SAE frequency: Nausea” value [2] was 8.3%, the “SAE frequency: Neutrophil count decreased” value [2] was 8.3% and the “SAE frequency: Oropharyngeal pain” value [2] was 16.7%. The “SAE frequency: Respiratory tract infection” value [2] was 8.3%, the “SAE frequency: Vomiting” value [2] was 8.3% and the “SAE frequency: Weight decreased” value [2] was 8.3%. The “SAE frequency: White blood cell count decreased” value [2] was 16.7%, the Oral pain (Arm 2) was 9.1% and the Related anemia (Arm 2) was 0%. The neutrophil count decrease (Arm 2) was 0%, the radiation-induced skin injury (Arm 2) was 18.2% and the related constipation (Arm 2) was 0%. For the same compound, the related oral dysesthesia (Arm 2) was 0%, the related vomiting (Arm 2) was 1% and the “reported adverse events (CTCAEv.4): Anemia” value [3] was 0 (0). For the same compound, the “reported adverse events (CTCAEv.4): Blood creatinine increased” value [3] was 2 (18.2), the “reported adverse events (CTCAEv.4): Blood urea increased” value [3] was 0 (0) and the “reported adverse events (CTCAEv.4): Candida infection” value [3] was 1 (9.1). For the same compound, the “reported adverse events (CTCAEv.4): Constipation” value [3] was 0 (0), the “reported adverse events (CTCAEv.4): Decreased appetite” value [3] was 0 (0) and the “reported adverse events (CTCAEv.4): Dermatitis” value [3] was 0 (0). The “reported adverse events (CTCAEv.4): Dry mouth” value [3] was 0 (0), the “reported adverse events (CTCAEv.4): Dysgeusia” value [3] was 0 (0) and the “reported adverse events (CTCAEv.4): Dysphagia” value [3] was 0 (0). The “reported adverse events (CTCAEv.4): Glossodynia” value [3] was 0 (0), the “reported adverse events (CTCAEv.4): Laryngeal inflammation” value [3] was 0 (0) and the “reported adverse events (CTCAEv.4): Neutrophil count decreased” value [3] was 0 (0). For the same compound, the “reported adverse events (CTCAEv.4): Oral candidiasis” value [3] was 0 (0), the “reported adverse events (CTCAEv.4): Oral dysaesthesia” value [3] was 0 (0) and the “reported adverse events (CTCAEv.4): Oral dysesthesia” value [3] was 0 (0). The “reported adverse events (CTCAEv.4): Oral pain” value [3] was 1 (9.1), the “reported adverse events (CTCAEv.4): Platelet count decreased” value [3] was 0 (0) and the “reported adverse events (CTCAEv.4): Radiation skin injury” value [3] was 2 (18.2). For the same compound, the “reported adverse events (CTCAEv.4): Salivary duct inflammation” value [3] was 0 (0), the “reported adverse events (CTCAEv.4): Vomiting” value [3] was 1 (9.1) and the “reported adverse events (CTCAEv.4): Weight decreased” value [3] was 0 (0). The “reported adverse events (CTCAEv.4): White blood cell count decreased” value [3] was 0 (0), the “SAE frequency: Acute kidney injury” value [4] was 18.2% and the “SAE frequency: Alanine aminotransferase increased” value [4] was 9.1%. The “SAE frequency: Anemia” value [4] was 9.1%, the “SAE frequency: Blood creatinine increased” value [4] was 9.1% and the “SAE frequency: Candida infection” value [4] was 9.1%. The “SAE frequency: Colitis” value [4] was 9.1%, the “SAE frequency: Deafness” value [4] was 9.1% and the “SAE frequency: Decreased appetite” value [4] was 9.1%. The “SAE frequency: Device related thrombosis” value [4] was 9.1%, the “SAE frequency: Dysphagia” value [4] was 9.1% and the “SAE frequency: Flank pain” value [4] was 9.1%. For the same compound, the “SAE frequency: Hypokalemia” value [4] was 9.1%, the “SAE frequency: Hypophosphatasemia” value [4] was 9.1% and the “SAE frequency: Laryngeal inflammation” value [4] was 9.1%. For the same compound, the “SAE frequency: Leukocytosis” value [4] was 9.1%, the “SAE frequency: Lymphocyte count decreased” value [4] was 72.7% and the “SAE frequency: Nausea” value [4] was 9.1%. The “SAE frequency: Neutrophil count decreased” value [4] was 27.3%, the “SAE frequency: Oral pain” value [4] was 9.1% and the “SAE frequency: Oropharyngeal pain” value [4] was 9.1%. For the same compound, the “SAE frequency: Stomatitis” value [4] was 9.1%, the “SAE frequency: Sudden death” value [4] was 9.1% and the “SAE frequency: White blood cell count decreased” value [4] was 36.4%. The “reported adverse events (CTCAEv.4): Anemia” value [5] was 4 (30.8), the “reported adverse events (CTCAEv.4): Blood creatinine increased” value [5] was 0 (0) and the “reported adverse events (CTCAEv.4): Blood urea increased” value [5] was 0 (0). For the same compound, the “reported adverse events (CTCAEv.4): Candida infection” value [5] was 3 (23.1), the “reported adverse events (CTCAEv.4): Constipation” value [5] was 0 (0) and the “reported adverse events (CTCAEv.4): Decreased appetite” value [5] was 4 (30.8). For the same compound, the “reported adverse events (CTCAEv.4): Dermatitis” value [5] was 0 (0), the “reported adverse events (CTCAEv.4): Dry mouth” value [5] was 4 (30.8) and the “reported adverse events (CTCAEv.4): Dysgeusia” value [5] was 7 (53.8). For the same compound, the “reported adverse events (CTCAEv.4): Dysphagia” value [5] was 2 (15.4), the “reported adverse events (CTCAEv.4): Glossodynia” value [5] was 0 (0) and the “reported adverse events (CTCAEv.4): Laryngeal inflammation” value [5] was 0 (0). For the same compound, the “reported adverse events (CTCAEv.4): Neutrophil count decreased” value [5] was 1 (7.7), the “reported adverse events (CTCAEv.4): Oral candidiasis” value [5] was 1 (7.7) and the “reported adverse events (CTCAEv.4): Oral dysaesthesia” value [5] was 0 (0). The “reported adverse events (CTCAEv.4): Oral dysesthesia” value [5] was 0 (0), the “reported adverse events (CTCAEv.4): Oral pain” value [5] was 4 (30.8) and the “reported adverse events (CTCAEv.4): Platelet count decreased” value [5] was 3 (23.1). The “reported adverse events (CTCAEv.4): Radiation skin injury” value [5] was 4 (30.8), the “reported adverse events (CTCAEv.4): Salivary duct inflammation” value [5] was 1 (7.7) and the “reported adverse events (CTCAEv.4): Vomiting” value [5] was 3 (23.1). For the same compound, the “reported adverse events (CTCAEv.4): Weight decreased” value [5] was 2 (15.4), the “reported adverse events (CTCAEv.4): White blood cell count decreased” value [5] was 1 (7.7) and the “SAE frequency: Complication associated with device” value [6] was 7.7%. For the same compound, the “SAE frequency: Decreased appetite” value [6] was 15.4%, the “SAE frequency: Dry Mouth” value [6] was 7.7% and the “SAE frequency: Dysphagia” value [6] was 30.8%. The “SAE frequency: Embolism” value [6] was 7.7%, the “SAE frequency: Gastric Perforation” value [6] was 7.7% and the “SAE frequency: Gastrointestinal tube insertion” value [6] was 15.4%. For the same compound, the “SAE frequency: Hypocalcemia” value [6] was 7.7%, the “SAE frequency: Hypokalemia” value [6] was 7.7% and the “SAE frequency: Hypophosphatasemia” value [6] was 7.7%. For the same compound, the “SAE frequency: Hypotension” value [6] was 7.7%, the “SAE frequency: Lung infection” value [6] was 7.7% and the “SAE frequency: Lymphocyte count decreased” value [6] was 53.8%. For the same compound, the “SAE frequency: Nausea” value [6] was 7.7%, the “SAE frequency: Neutrophil count decreased” value [6] was 30.8% and the “SAE frequency: Oral dysaesthesia” value [6] was 7.7%. The “SAE frequency: Oral dysesthesia” value [6] was 7.7%, the “SAE frequency: Oral pain” value [6] was 7.7% and the “SAE frequency: Oropharyngeal pain” value [6] was 7.7%. For the same compound, the “SAE frequency: Salivary duct inflammation” value [6] was 7.7%, the “SAE frequency: Stomatitis” value [6] was 7.7% and the “SAE frequency: Swelling face” value [6] was 7.7%. For the same compound, the “SAE frequency: Tumor pain” value [6] was 7.7%, the “SAE frequency: Vomiting” value [6] was 7.7% and the “SAE frequency: Weight decreased” value [6] was 7.7%. For the same compound, the “SAE frequency: White blood cell count decreased” value [6] was 30.8%, the “incidence of salivary duct inflammation” value (Arms 1 and 2, vs control 30%, N.S.) was “none” and the “incidence of dry mouth” value (Arms 1 and 2, vs control 60%, p=0.0028) was “none”. For the same compound, the incidence of dysphagia (Arms 1 and 2, vs control 70%, p=0.0007) was “none”, the “SAEs attributed to RRx-001” value (PREVLAR) was “none were attributed to RRx-001” and the “toxicity attributed to RRx-001” value (PREVLAR) was “discomfort during infusion”. The weight loss (RRx-001-treated patients vs control 50%, p=0.0095) was “none”, the “impact on marrow-related AEs (anemia, neutropenia), renal function or the incidence of candidiasis” value (RRx-001 treatment vs control) was “did not statistically impact” and the “character of toxicity attributable specifically to RRx-001” value (infusion) was “localized, mild, and transient”.
